These are literature values, as cited in patent US8715625B1, “Natural oral care compositions” (The Clorox Company, priority 2010, dated 2014).

This data set has as its system plaque. The settings on record: two tests conducted by Purdue University's Dental Science Research Group.

For `C=C1C[C@@]23CC[C@H]4[C@@](C)(CCC[C@@]4(C)C(=O)O[C@@H]4O[C@H](CO)[C@@H](O)[C@H](O)[C@H]4O)[C@@H]2CC[C@]1(O[C@@H]1O[C@H](CO)[C@@H](O)[C@H](O)[C@H]1O[C@@H]1O[C@H](CO)[C@@H](O)[C@H](O)[C@H]1O)C3` [Stevioside], the development of plaque result is ““significantly” inhibits the development of plaque”.
